Data set [1] deals with T1, DOT1L (Homo sapiens, UniProt Q8TEK3).
T1 construct: purchased BPS Bioscience 52202
The data set is described as follows: DOT1L enzyme activity assay (cell-free). Type of data set: biochemical. The note with it: 500 nM, 2 h, DOT1L 500 ng/well. Here is the method: DOT1L enzyme activity was measured using 5 μM S-adenosyl methionine (SAM) as the methyl group donor, synthesized DOT1L substrate as the substrate, and 25 ng/μL DOT1L enzymes from BPS Bioscience (Cat. No. 52202; San Diego, CA, USA) according to the manufacturer’s instructions.

The test system of data set [2] is MDA-MB-231 TNBC cells. The data set is described as follows: SRB cell proliferation assay, MDA-MB-231. Type of data set: cell-based, human. The following applies: for IC50: 72 h, SRB assay; for Therapeutic Index: ratio of IC50 values between MCF10A and MDA-MB-231 cells. As to the method: (§1) Human breast epithelial cell line (MCF10A) and human TNBC cell lines (MDA-MB-468, MDA-MB-231, Hs578T, and HCC38 cells) were provided by the American Type Culture Collection (Manassas, VA, USA). MCF10A cells were cultured in Dulbecco’s Modified Eagle’s Medium/Nutrient Mixture F-12 containing 5% donor horse serum, 100 ng/mL cholera toxin, 10 µg/mL human insulin, 20 ng/mL epidermal growth factor, 0.5 µg/mL hydrocortisone, and penicillin-streptomycin (sodium penicillin G: 100 units/mL; streptomycin: 100 μg/mL). The TNBC cells were cultured in medium [Dulbecco’s Modified Eagle’s Medium for MDA-MB-468, MDA-MB-231, and Hs578T cells; Roswell Park Memorial Institute 1640 medium for HCC38 cells] supplemented with penicillin-streptomycin and 10% fetal bovine serum at 37 °C in a humidified incubator with 5% carbon dioxide. MCF10A cells were cultured in DMEM/F12 containing 5% donor horse serum, 100 ng/mL cholera toxin, 10 µg/mL human insulin, 20 ng/mL epidermal growth factor, 0.5 µg/mL hydrocortisone and penicillin-streptomycin. All reagents used for cell culture, including culture medium, fetal bovine serum, trypsin-EDTA solution (1×), and penicillin-streptomycin solution (100×), were purchased from Gibco (Grand Island, NE, USA). Laemmli sample buffer (2×) and 2-mercaptoethanol were purchased from Bio-Rad Laboratories, Inc. (Hercules, CA, USA). EPZ-5676 was purchased from Cayman Chemical (Ann Arbor, MI, USA). Dimethyl sulfoxide (DMSO), bicinchoninic acid, copper (II) sulfate solution, bovine serum albumin (BSA), trichloroacetic acid, sulforhodamine B (SRB), and paclitaxel were purchased from Sigma–Aldrich (St. Louis, MO, USA).
(§2) Cell proliferation was evaluated using the SRB assay. Briefly, cells were seeded in 96-well plates and incubated for 30 min (for 0-day controls) or treated with test compounds for the times indicated. After incubation, the cells were fixed, dried, and stained with 0.4% (w/v) SRB in 1% (v/v) acetic acid solution. Unbound dye was removed by washing, and stained cells were dissolved in 10 mM Tris (pH 10.0). Cell proliferation was then determined by measuring the absorbance at 515 nm.

Data set [3] relates to MCF10A normal breast epithelial cells. Briefly: SRB cell proliferation assay, MCF10A. Type of data set: cell-based, human. The following applies: 72 h. As to the method: as §1, §2
The test system of data set [4] is MDA-MB-231/Luc cells-implanted orthotopic mouse model. Briefly: MDA-MB-231/Luc-implanted orthotopic mouse tumor model. In kind it is in vivo. The following applies: 30 mg/kg i.p., three times per week for 38 days. Here is the method:
All animal experiments were conducted following the guidelines approved by the Seoul National University Institutional Animal Care and Use Committee (IACUC; permission number: SNU-180430-4-1). Female nude mice (BALB/c-nu), 4 weeks old, were purchased from Central Laboratory Animal, Inc. (Seoul, Korea) and housed under pathogen-free conditions with a 12 h light-dark schedule. Luciferase expressing MDA-MB-231 cells were inoculated orthotopically into the fourth fat pad of mice (1 × 10^7 cells in 100 μL of 50:50 PBS/Matrigel) using a 29-gauge needle. Two weeks after implantation, mice were randomized into vehicle control and treatment groups of six animals per group and were administered with vehicle (EtOH/Cremophor/Normal saline = 5:5:90), 9l (10 or 30 mg/kg body weight), EPZ-5676 (30 mg/kg body weight), or paclitaxel (5 mg/kg body weight, Sigma-Aldrich) as a positive reference control. Compounds were administered intraperitoneally three times per week for 38 days. An additional week later, anesthetized mice were positioned in IVIS (PerkinElmer, Waltham, MA, USA) and were imaged 15 min after injection of 150 mg/kg D-luciferin (Gold Biotechnology, St. Louis, MO, USA) resuspended in DPBS (w/o calcium or magnesium). Mice were euthanized and primary tumors and lungs were excised, weighed, and frozen for further biochemical analysis. The length (L), width (W), and height (H) of the tumors were also measured using a digital slide caliper (Mitutoyo, Kawasaki, Japan) once a week, and tumor volumes (mm^3) were estimated by the formula LWH/2. Toxicity was evaluated based on body weight loss.
A portion of the frozen tumors excised from nude mice on the termination day of the experiment was homogenized using a hand-held homogenizer in complete lysis buffer (Active Motif, Carlsbad, CA, USA). Aliquots were stored at −80 °C, and the levels of protein expression in the tumor lysates were determined. The protein concentrations in the tumor lysates were measured using the Bradford assay.

Data set [5] can be described thus: Molecular stability in dichloromethane (TLC analysis). Type of data set: physicochemical. The following applies: room temperature, 48 h. As to the method:
Figure S1. Thin layer chromatography analysis
Se-S bond analog (Figure 2, compound 9) was dissolved in dichloromethane at room
temperature. After 48 h, thin layer chromatography (TLC) analysis of the compound
9 was performed. (P : Compound 9, C : Co-spot, S : Diphenyl disulfide, SPA :
Compound 5b, eluent: [Hexane:EtOAc = 1:1] ).
(1 picture or pasted object on this page, not shown here)

T1 sequence (Q8TEK3 whole entry): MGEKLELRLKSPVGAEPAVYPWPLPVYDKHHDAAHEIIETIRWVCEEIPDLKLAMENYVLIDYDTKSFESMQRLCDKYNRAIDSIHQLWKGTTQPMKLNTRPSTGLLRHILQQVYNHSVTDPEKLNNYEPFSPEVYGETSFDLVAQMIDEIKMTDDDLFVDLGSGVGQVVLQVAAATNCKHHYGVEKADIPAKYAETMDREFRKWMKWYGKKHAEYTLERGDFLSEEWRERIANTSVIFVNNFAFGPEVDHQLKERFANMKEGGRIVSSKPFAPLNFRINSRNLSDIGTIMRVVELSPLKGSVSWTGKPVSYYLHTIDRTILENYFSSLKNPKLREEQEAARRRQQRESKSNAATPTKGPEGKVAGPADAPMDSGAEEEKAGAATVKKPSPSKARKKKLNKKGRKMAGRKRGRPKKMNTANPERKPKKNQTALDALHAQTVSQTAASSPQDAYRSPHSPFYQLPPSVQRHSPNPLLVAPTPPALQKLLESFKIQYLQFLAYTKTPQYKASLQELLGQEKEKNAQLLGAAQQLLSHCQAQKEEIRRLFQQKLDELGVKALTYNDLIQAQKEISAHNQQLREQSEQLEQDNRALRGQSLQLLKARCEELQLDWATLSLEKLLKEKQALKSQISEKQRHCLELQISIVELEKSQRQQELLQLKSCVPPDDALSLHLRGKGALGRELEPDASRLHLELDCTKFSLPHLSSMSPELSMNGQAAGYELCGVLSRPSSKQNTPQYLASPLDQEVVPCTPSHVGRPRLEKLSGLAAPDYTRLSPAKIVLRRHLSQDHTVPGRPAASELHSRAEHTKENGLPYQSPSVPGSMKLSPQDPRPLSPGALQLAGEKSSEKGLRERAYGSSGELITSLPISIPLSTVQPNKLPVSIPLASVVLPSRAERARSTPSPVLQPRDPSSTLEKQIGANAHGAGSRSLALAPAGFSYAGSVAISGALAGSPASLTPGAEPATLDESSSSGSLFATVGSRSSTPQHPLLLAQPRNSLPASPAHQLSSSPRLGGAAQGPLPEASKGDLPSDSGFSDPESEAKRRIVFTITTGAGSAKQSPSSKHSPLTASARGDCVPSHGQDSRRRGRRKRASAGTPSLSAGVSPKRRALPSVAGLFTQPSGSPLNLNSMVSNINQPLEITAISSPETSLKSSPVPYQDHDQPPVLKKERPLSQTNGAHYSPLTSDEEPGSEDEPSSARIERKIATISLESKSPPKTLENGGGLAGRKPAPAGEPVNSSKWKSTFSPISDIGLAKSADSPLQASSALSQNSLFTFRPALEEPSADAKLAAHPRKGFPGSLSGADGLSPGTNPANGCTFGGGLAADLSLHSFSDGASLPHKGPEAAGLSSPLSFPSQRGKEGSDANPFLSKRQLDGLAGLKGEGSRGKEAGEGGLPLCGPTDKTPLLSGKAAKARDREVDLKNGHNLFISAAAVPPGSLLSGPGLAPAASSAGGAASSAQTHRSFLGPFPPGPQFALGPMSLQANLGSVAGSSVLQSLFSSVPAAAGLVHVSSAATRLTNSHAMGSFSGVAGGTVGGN

Take `O=C(NCC[Se]Sc1ccccc1)/C(Cc1ccc(O)c(Br)c1)=N/O` [9a, (E)-3-(3-Bromo-4-hydroxyphenyl)-2-(hydroxyimino)-N-(2-((phenylthio)selanyl)ethyl)propanamide]: the “Inhibition of DOT1L enzyme activity” value in data set [1] is “significant inhibitory effects”. The IC50 (in general, the concentration at which inhibition is half-maximal) in data set [2] (Homo sapiens, MDA-MB-231) came to 210 nM; in data set [3] (Homo sapiens, MCF-10A), 17200 nM. Besides, the “Therapeutic Index” value in data set [2] turned out to be 82.10.
Consider `O=C(NCC[Se]Sc1ccccc1)/C(Cc1ccccc1)=N/O` [9b, (E)-2-(Hydroxyimino)-3-phenyl-N-(2-((phenylthio)selanyl)ethyl)propanamide], for which the “Inhibition of DOT1L enzyme activity” value in data set [1] is “significant inhibitory effects”. For the same compound, the IC50 in data set [2] (Homo sapiens, MDA-MB-231) was determined as 250 nM; in data set [3] (Homo sapiens, MCF-10A), 21500 nM. In addition, the “Therapeutic Index” value in data set [2] came to 86.08.
As for `O=C(NCC[Se]Sc1ccccc1)/C(Cc1ccc2ccccc2c1)=N/O` [9c, (E)-2-(Hydroxyimino)-3-(naphthalen-2-yl)-N-(2-((phenylthio)selanyl)ethyl)propanamide], the concentration for half-maximal inhibition (IC50) in data set [2] (Homo sapiens, MDA-MB-231) amounted to 460 nM; in data set [3] (Homo sapiens, MCF-10A), 28200 nM. Also, the “Therapeutic Index” value in data set [2] came to 61.30.
Turning to `O=C(NCC[Se]Sc1ccccc1)/C(Cc1ccc(F)cc1)=N/O` [9d, (E)-3-(4-Fluorophenyl)-2-(hydroxyimino)-N-(2-((phenylthio)selanyl)ethyl)propanamide], the concentration for half-maximal inhibition (IC50) in data set [2] (Homo sapiens, MDA-MB-231) amounted to 390 nM; in data set [3] (Homo sapiens, MCF-10A), 26000 nM. Moreover, the “Therapeutic Index” value in data set [2] worked out at 66.77.
Take `O=C(NCC[Se]Sc1ccccc1)/C(Cc1ccc(F)c(F)c1)=N/O` [9e, (E)-3-(3,4-Difluorophenyl)-2-(hydroxyimino)-N-(2-((phenylthio)selanyl)ethyl)propanamide]: the IC50 was 430 nM in data set [2] (Homo sapiens, MDA-MB-231) and 23300 nM in data set [3] (Homo sapiens, MCF-10A). Besides, in data set [2], the “Therapeutic Index” value is given as 54.23.
The matching figures for `O=C(NCC[Se]Sc1ccccc1)/C(Cc1ccc(Cl)cc1)=N/O` [9f, (E)-3-(4-Chlorophenyl)-2-(hydroxyimino)-N-(2-((phenylthio)selanyl)ethyl)propanamide]: 470 nM, 27100 nM and 57.60.
The matching figures for `O=C(NCC[Se]Sc1ccccc1)/C(Cc1ccc(Cl)c(Cl)c1)=N/O` [9g, (E)-3-(3,4-Dichlorophenyl)-2-(hydroxyimino)-N-(2-((phenylthio)selanyl)ethyl)propanamide]: 330 nM, 22700 nM and 68.67.
In the case of `O=C(NCC[Se]Sc1ccccc1)/C(Cc1ccc(Br)cc1)=N/O` [9h, (E)-3-(4-Bromophenyl)-2-(hydroxyimino)-N-(2-((phenylthio)selanyl)ethyl)propanamide], the IC50 turned out to be 400 nM in data set [2] (Homo sapiens, MDA-MB-231) and 29100 nM in data set [3] (Homo sapiens, MCF-10A). Also, in data set [2], the “Therapeutic Index” value was found to be 72.85.
The matching figures for `CCOc1ccc(C/C(=N\O)C(=O)NCC[Se]Sc2ccccc2)cc1` [9i, (E)-3-(4-Ethoxyphenyl)-2-(hydroxyimino)-N-(2-((phenylthio)selanyl)ethyl)propanamide]: 170 nM, 21000 nM and 123.65.
The matching figures for `O=C(NCC[Se]Sc1ccccc1)/C(Cc1ccc(OCc2ccccc2)cc1)=N/O` [9j, (E)-3-(4-(Benzyloxy)phenyl)-2-(hydroxyimino)-N-(2-((phenylthio)selanyl)ethyl)propanamide]: 180 nM, 19500 nM and 108.22.
As to `O=C(NCC[Se]Sc1ccccc1)/C(Cc1ccc([N+](=O)[O-])cc1)=N/O` [9k, (E)-2-(Hydroxyimino)-3-(4-nitrophenyl)-N-(2-((phenylthio)selanyl)ethyl)propanamide], the IC50 in data set [2] (Homo sapiens, MDA-MB-231) was 190 nM; in data set [3] (Homo sapiens, MCF-10A), 18200 nM. For the same compound, the “Therapeutic Index” value in data set [2] worked out at 95.53.
For `O=C(NCC[Se]Sc1ccccc1)/C(Cc1ccc(O)c(Cl)c1)=N/O` [9m, (E)-3-(3-Chloro-4-hydroxyphenyl)-2-(hydroxyimino)-N-(2-((phenylthio)selanyl)ethyl)propanamide], the IC50 came to 250 nM in data set [2] (Homo sapiens, MDA-MB-231) and 17000 nM in data set [3] (Homo sapiens, MCF-10A). In addition, in data set [2], the “Therapeutic Index” value came out at 68.08.
Turning to `O=C(NCC[Se]Sc1ccccc1)/C(Cc1ccc(O)c(F)c1)=N/O` [9n, (E)-3-(3-Fluoro-4-hydroxyphenyl)-2-(hydroxyimino)-N-(2-((phenylthio)selanyl)ethyl)propanamide], the IC50 in data set [2] (Homo sapiens, MDA-MB-231) worked out at 230 nM; in data set [3] (Homo sapiens, MCF-10A) it was 18500 nM. In data set [2], the “Therapeutic Index” value was 80.48.
Turning to `CC(C)N(C[C@H]1O[C@@H](n2cnc3c(N)ncnc32)[C@H](O)[C@@H]1O)[C@H]1C[C@@H](CCc2nc3cc(C(C)(C)C)ccc3[nH]2)C1` [EPZ-5676, reference compound], the IC50 was greater than 50000 nM in data set [2] (Homo sapiens, MDA-MB-231) and greater than 50000 nM in data set [3] (Homo sapiens, MCF-10A). For the same compound, the “inhibition of proliferation of TNBC cells” value in data set [2] (at 50 μM) is on record as “not able to inhibit the proliferation”. Besides, the “effect on tumor growth” value in data set [4] is “did not affect tumor growth”.
With `CC(=O)O[C@H]1C(=O)[C@@]2(C)[C@H]([C@H](OC(=O)c3ccccc3)[C@]3(O)C[C@H](OC(=O)[C@H](O)[C@@H](NC(=O)c4ccccc4)c4ccccc4)C(C)=C1C3(C)C)[C@]1(OC(C)=O)CO[C@@H]1C[C@@H]2O` [Paclitaxel, reference compound], the IC50 in data set [2] (Homo sapiens, MDA-MB-231) was 10 nM; in data set [3] (Homo sapiens, MCF-10A), 198 nM. The “Therapeutic Index” value in data set [2] is recorded as 19.80.
On to `CC(C)(C)c1ccc(CC(=NO)C(=O)NCCSSc2ccccc2)cc1` [PsA-3091, reference compound], for which the results for the IC50 in data set [2] and in data set [3] were 1980 nM and 137000 nM, respectively. The “Therapeutic Index” value in data set [2] came to 68.99.
`O=C(NCCSSCCNC(=O)/C(Cc1ccc(O)c(Br)c1)=N/O)/C(Cc1ccc(O)c(Br)c1)=N/O` [Psammaplin A (PsA), Psammaplin A]: the “Inhibition of DOT1L enzyme activity” value in data set [1] is recorded as “negligible DOT1L inhibition”. Further, the IC50 in data set [2] (Homo sapiens, MDA-MB-231) worked out at 2820 nM; in data set [3] (Homo sapiens, MCF-10A), 32700 nM. The “Therapeutic Index” value in data set [2] was 11.60.
As for `O=C(NCC[Se]Sc1ccccc1)/C(Cc1ccccc1)=N/O` [compound 9], the molecular stability result in data set [5] is listed as “stable”.

Values taken from paper PMC7824081, “Inhibition of DOT1L by Half-Selenopsammaplin A Analogs Suppresses Tumor Growth and EMT-Mediated Metastasis in Triple-Negative Breast Cancer” (Pharmaceuticals, 2020).
